The record followed here is ChEMBL document CHEMBL1155586, “Streptazones A, B(1), B(2), C, and D: new piperidine alkaloids from streptomycetes” (2000).

Active and inactive are the calls of the source. No cut-off for these calls is given here.

The test system of one assay is HMO2. Kind of assay: Cytotoxicity against human HMO2 cells at 50 umol/L. In kind it is functional, cell-based.
The test system of another assay is Kato3. In words: Cytotoxicity against human Kato3 cells at 50 umol/L. The format is functional, cell-based.
The test system of assay [1] is MCF7. Kind of assay: Cytotoxicity against human MCF7 cells at 50 umol/L. In kind it is functional, cell-based.
The subject of the next assay is HepG2. In words: Cytotoxicity against human HepG2 cells. In kind it is functional.
Assay [2] is described as follows: Cytotoxicity against human HMO2 cells. In kind it is functional.
The nature of assay [3]: Cytotoxicity against human Kato3 cells. The format is functional.
Assay [4] deals with MCF7. In words: Cytotoxicity against human MCF7 cells. The format is functional.

As for `C/C=C1/C2=CCCN3C(=O)O[C@H]([C@H]1O)[C@H]23`, the result in the assay with HMO2, in the assay on Kato3 and in the assay on MCF7 [1] was inactive.
Turning to `C/C=C/C=C/C1=CC(=O)CCN1`, the outcome in the assay on HMO2, in the assay on Kato3 and with MCF7 [1] was inactive.
With `C/C=C1\C=CC2=C1C(=O)CCN2`, the outcome in the assay with HMO2, in the assay with Kato3 and in the assay with MCF7 [1] was inactive.
Take `C/C=C1\C(=O)C=C2NCCC3OC213` (stereo not given) [STREPTAZONE A]: the GI50 with HepG2 is under 0.1 µM; in assay [2] it was 0.5 µM; in assay [3] it was 0.6 µM; in the assay on MCF7 [4], 15 µM. In addition, the TGI turned out to be 2.5 µM with HepG2, 50 µM in assay [2], 1 µM in assay [3] and 50 µM with MCF7 [4].
Consider `C/C=C1\C(=O)C=C2NCCC=C21`, for which the outcome in the assay on HMO2, with Kato3 and with MCF7 [1] was inactive.

Broadly, the GI50 is the concentration at which growth is held to half of that of the control. Read a high GI50 as less potent growth inhibition. One may read the TGI as the concentration giving total growth inhibition. Low values mean more potent growth arrest, high ones less potent growth arrest.
